Experimental data taken from patent US20180321224A1, “COMPOSITIONS AND METHODS FOR INCREASING HEPATOCYTE FUNCTIONAL LIFETIME IN VITRO” (Colorado State University Research Foundation, priority 2015, published 2018).
Like-named read-outs stand apart in the source and are kept apart here.

Experiments:
[1] = test system: primary human hepatocytes in micropatterned co-cultures (MPCCs); assay: Hepatotoxicity screening in MPCCs pre-cultured in physiologic medium (urea synthesis); details: for Calculated TC50 (interpolated concentration where urea synthesis drops below 50% of the vehicle control): MPCCs in physiologic medium for 10 days, treated 2 times over 5 days in serum free medium, vehicle DMSO
Protocol: Therefore, a drug screen with cultures after they were subjected to physiologic medium for 10 days was carried out (FIG. 5). […] Drug treatments were carried out in serum free medium to prevent potential drug-protein interactions.
Urea synthesis and glucose production was quantified using previously described methods. Since human serum contains significant amounts of […], an alternative protocol to quantify MPCC albumin production was used. Specifically, after 2 and 3 weeks of culture, cultures were washed 3 times with 1×PBS, and then incubated for 24 hours in serum free medium. Albumin was then measured in this medium using a sandwich ELISA method. To account for potential residual albumin in cell culture medium, any differences in albumin production between cultures incubated in 5%, 7.5% and 10% serum were examined. […] Enzyme activity was assessed using the methods previously described.
Drug toxicity and enzyme induction were assessed as previously described.

[2] = average maximal drug concentration observed in patients after administering the drug; cited from earlier work
[3] = after 2 treatments over 5 days at 25*Cmax and 100*Cmax, serum free medium, MPCCs pre-cultured in physiologic medium 10 days

troglitazone
Calculated TC50 (interpolated concentration where urea synthesis drops below 50% of the vehicle control) [1]: 1555 µM
Toxicity categorization by urea synthesis in MPCC supernatants (toxic if below 50% of vehicle control) [1, 3]: toxic
Cmax [2]: 6.39 µM

CC(=O)Oc1ccccc1C(=O)O [aspirin]
Toxicity categorization by urea synthesis in MPCC supernatants (toxic if below 50% of vehicle control) [1]: no significant loss in urea synthesis

C[C@]12C=CC(=O)C=C1CC[C@@H]1[C@@H]2C(=O)C[C@@]2(C)[C@H]1CC[C@]2(O)C(=O)CO [prednisone]
Toxicity categorization by urea synthesis in MPCC supernatants (toxic if below 50% of vehicle control) [1]: no significant loss in urea synthesis

Clc1ccc(COC(Cn2ccnc2)c2ccc(Cl)cc2Cl)c(Cl)c1 (stereo not shown) [miconazole]
Toxicity categorization by urea synthesis in MPCC supernatants (toxic if below 50% of vehicle control) [1]: no significant loss in urea synthesis

C[C@@H]1C[C@H]2[C@@H]3CCC4=CC(=O)C=C[C@]4(C)[C@@]3(F)[C@@H](O)C[C@]2(C)[C@@]1(O)C(=O)CO [dexamethasone]
Toxicity categorization by urea synthesis in MPCC supernatants (toxic if below 50% of vehicle control) [1]: no significant loss in urea synthesis

piroxicam
Calculated TC50 (interpolated concentration where urea synthesis drops below 50% of the vehicle control) [1]: 2901 µM
Toxicity categorization by urea synthesis in MPCC supernatants (toxic if below 50% of vehicle control) [1, 3]: toxic
Cmax [2]: 5.13 µM
